Test results reported in article PMC6445242, “Novel tetrazole and cyanamide derivatives as inhibitors of cyclooxygenase-2 enzyme: design, synthesis, anti-inflammatory evaluation, ulcerogenic liability and docking study” (Journal of Enzyme Inhibition and Medicinal Chemistry, 2017).
Entries after “also recorded” stand apart in the source; their conditions may differ.

Legend:
rat's gastric tissue = test: Histopathological investigation of stomach; format: in vivo; details: haematoxylin and eosin, after ulcerogenic liability dosing
Procedure: Whole rats stomach were collected, selected stomach samples from each rat were fixed in 10% neutral buffered formalin for 48 h and routinely processed for paraffin embedding. 5 μm Thickness sections were obtained then stained with haematoxylin and eosin for histopathological evaluation.

[1] = test system: gastric mucosa (ulcer number, ulcer index); test: Ulcerogenic liability; format: in vivo, rat; details: 50 mg/kg oral, three successive days, rats; for Ulcer index: sum of % incidence, average severity and average number of ulcers
Procedure: Female wister rats (150–200 g) were used in this study. The animals were kept at controlled conditions (temperature 23 ± 2 °C, humidity 60 ± 10%) and a 12/12-h light/dark cycle with access to food and water. All procedures relating to animal care and treatments were performed according to protocols approved by the Research Ethical Committee of Faculty of Pharmacy Beni-Suef University (2014-Beni-Suef, Egypt).
[…]. Forty-eight rats were used in this study, divided into 12 groups and fasted for 18 h before drug administration. The control group received the vehicle (2.5% Tween 80). Other groups received test compounds, celecoxib or indomethacin at a dose of 50 mg/kg, then animals were fed after 2 h. Rats were given the specified dose orally for three successive days. Rats were sacrificed after 2 h of the last dose, then the stomach of each rat was removed and opened along the greater curvature for determination of the ulcer number and ulcer index according to the reported method.

[2] = test system: carrageenan-induced paw oedema; test: Carrageenan-induced rat paw oedema; format: in vivo; details: 50 mg/kg oral; for %Inhibition of paw oedema, 1h / Paw thickness change mean ± SEM, 1h: 1 h after carrageenan; for Paw thickness change mean ± SEM, 1h / Paw thickness change mean ± SEM, 3h / Paw thickness change mean ± SEM, 5h: n = 4; for %Inhibition of paw oedema, 3h / Paw thickness change mean ± SEM, 3h: 3 h after carrageenan; for %Inhibition of paw oedema, 5h / Paw thickness change mean ± SEM, 5h: 5 h after carrageenan
Procedure: Female wister rats (150-200 g) were used in this study. The animals were kept at controlled conditions (temperature 23 ± 2 °C, humidity 60 ± 10%) and a 12/12-h light/dark cycle with access to food and water. All procedures relating to animal care and treatments were performed according to protocols approved by the Research Ethical Committee of Faculty of Pharmacy Beni-Suef University (2014-Beni-Suef, Egypt). The anti-inflammatory activity of the synthesised compounds was determined in vivo by […]-induced paw oedema method in rats[49]. Rats were divided into 21 groups of four animals each, and then, they were fasted overnight with free access to water before the experiment. Before any drug administration, thickness of the left hind paw of each rat was measured in millimetres. Group 1 served as a control and administered the vehicle (2.5% Tween 80).

ovine COX-1 = target: T1, ovine COX-1 (Ovis aries, UniProt P05979); test: In vitro COX-1 inhibition assay (EIA kit, Cayman)
T1 sequence (P05979 25-600): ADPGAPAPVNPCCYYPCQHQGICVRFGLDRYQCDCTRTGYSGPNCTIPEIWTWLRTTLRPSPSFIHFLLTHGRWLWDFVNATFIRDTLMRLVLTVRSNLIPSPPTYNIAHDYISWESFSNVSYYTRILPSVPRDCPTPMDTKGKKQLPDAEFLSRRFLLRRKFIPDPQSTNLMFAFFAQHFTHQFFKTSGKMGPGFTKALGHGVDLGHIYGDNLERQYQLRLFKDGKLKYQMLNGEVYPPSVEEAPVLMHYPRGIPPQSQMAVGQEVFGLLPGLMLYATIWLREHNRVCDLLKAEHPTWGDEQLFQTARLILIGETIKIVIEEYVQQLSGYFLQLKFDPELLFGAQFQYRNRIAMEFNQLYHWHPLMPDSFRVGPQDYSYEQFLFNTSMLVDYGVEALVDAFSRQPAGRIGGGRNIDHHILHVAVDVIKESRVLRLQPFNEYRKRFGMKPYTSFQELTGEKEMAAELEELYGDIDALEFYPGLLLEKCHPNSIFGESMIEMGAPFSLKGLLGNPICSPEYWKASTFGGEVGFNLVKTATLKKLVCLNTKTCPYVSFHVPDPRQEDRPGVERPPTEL
Procedure: (§1) The peroxidase activity of cyclooxygenase enzyme isoforms was measured using the COX activity assay kit. The ability of the test compounds to inhibit both ovine COX-1 and COX-2 enzymes was explored in vitro using a colorimetric enzyme immunoassay (EIA) kit. The appearance of oxidised N,N,N′,N′-tetramethyl-p-phenylenediamine (TMPD) was monitored at 590 nm. The kit includes isozyme-specific inhibitors for distinguishing COX-2 activity from that of COX-1.

ovine COX-2 = target: T2, ovine COX-2 (Ovis aries, UniProt P79208); test: In vitro COX-2 inhibition assay (EIA kit, Cayman); details: for IC50: IC50 COX-2, ovine COX-2, mean of two determinations; for SI, COX-2 selectivity index (COX-1 IC50/COX-2 IC50): ovine enzymes
T2 sequence (P79208 17-603): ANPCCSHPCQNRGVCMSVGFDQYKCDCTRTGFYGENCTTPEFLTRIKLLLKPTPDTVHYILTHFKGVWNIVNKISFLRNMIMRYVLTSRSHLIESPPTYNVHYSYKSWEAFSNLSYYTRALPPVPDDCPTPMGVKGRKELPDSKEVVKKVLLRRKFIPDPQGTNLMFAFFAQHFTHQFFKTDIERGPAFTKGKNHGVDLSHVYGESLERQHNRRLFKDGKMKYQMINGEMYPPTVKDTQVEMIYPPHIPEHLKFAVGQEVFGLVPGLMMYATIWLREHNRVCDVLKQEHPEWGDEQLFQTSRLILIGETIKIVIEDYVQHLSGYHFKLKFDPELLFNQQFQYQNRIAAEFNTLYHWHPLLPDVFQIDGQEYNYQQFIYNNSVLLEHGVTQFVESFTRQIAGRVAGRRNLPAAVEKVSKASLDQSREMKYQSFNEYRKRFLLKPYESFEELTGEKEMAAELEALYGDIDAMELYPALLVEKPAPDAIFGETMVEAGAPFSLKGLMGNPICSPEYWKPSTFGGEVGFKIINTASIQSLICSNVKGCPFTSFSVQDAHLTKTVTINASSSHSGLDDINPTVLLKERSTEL
Procedure: as §1

[3] = test system: latency time of pain response; test: Hot plate method (central analgesic activity); format: in vivo; details: 10 mg/kg oral, mice, hot plate 55 °C, after 60 min
Procedure: This method was used to evaluate the central analgesic activity by determination of the delay in the latency time of pain response. […] After 60 min, the animals were placed on a hot plate maintained at 55 ± 0.5 °C. The reaction time was recorded as the time taken by the animals to […] or lick the fore or hind paw or jump off the plate.

SMILES | Histopathological findings in stomach (rat's gastric tissue) | Average number of ulcers [1] | Ulcer index [1] | %Inhibition of paw oedema, 1h [2] | Paw thickness change mean ± SEM, 1h [2] | %Inhibition of paw oedema, 3h [2] | Paw thickness change mean ± SEM, 3h [2] | %Inhibition of paw oedema, 5h [2] | Paw thickness change mean ± SEM, 5h [2] | melting point | IC50 (ovine COX-1) | IC50 (ovine COX-2) | SI, COX-2 selectivity index (COX-1 IC50/COX-2 IC50) (ovine COX-2) | Central analgesic activity (delay in latency time) [3]
Cc1ccc(-c2cc(C(F)(F)F)nn2-c2ccc(S(N)(=O)=O)cc2)cc1 [Celecoxib, reference compound] | thickening and hyalinosis of basement membrane with lymphocytic infiltration and minimal congested submucosal blood capillaries | 0.50 | 0.50 | 76% | 0.38 ± 0.03 mm | 66% | 0.58 ± 0.11 mm | 19% | 1.08 ± 0.13 mm |  |  |  |  | 
COc1ccc(-c2cc(-c3ccc(-n4cnnn4)cc3)nc(N)c2C#N)cc1OC [Compound 4c, 6-[4-(1H-Tetrazol-1-yl)phenyl]-2-amino-4-(3,4-dimethoxyphenyl)nicotinonitrile] | mucous degeneration in gastric glandular epithelium reach to coagulative necrosis | 1.75 | 1.75 |  | 0.83 ± 0.15 mm | 58% | 0.70 ± 0.11 mm | 8% | 1.23 ± 0.11 mm | 230 to 232 °C | 16 µM | 380 nM | 42.02 | 
N#Cc1c(-c2ccccc2)cc(-c2ccc(-n3cnnn3)cc2)[nH]c1=O [Compound 5a, 6-[4-(1H-Tetrazol-1-yl)phenyl]-2-oxo-4-phenyl-1,2-dihydropyridine-3-carbonitrile] | all layers of stomach were more or less normal; also recorded: most preferable compound with minimal drug effect on tissue | 0.75 | 1.25 | 61% | 0.61 ± 0.08 mm | 54% | 0.63 ± 0.18 mm | 61% | 0.53 ± 0.09 mm | 281 to 283 °C | 7.09 µM | 180 nM | 39.38 | 
COc1ccc(C2CC(c3ccc(-n4cnnn4)cc3)=NN2c2ccc(S(C)(=O)=O)cc2)cc1OC (stereo not drawn) [Compound 8a, 1-{4-[5-(3,4-Dimethoxyphenyl)-1-(4-(methanesulphonyl)phenyl]-4,5-dihydro-1H-pyrazol-3-yl)phenyl}-1H-tetrazole] | some areas of glandular epithelium were more or less normal associated with sever congested blood capillaries and eosinophilic infiltrations in submucosa | 1.50 |  | 71–75% |  | 52% | 0.89 ± 0.19 mm | 15% | 1.13 ± 0.11 mm |  | 8.67 µM | 320 nM |  | potent analgesic activities
COc1cc(C2CC(c3ccc(-n4cnnn4)cc3)=NN2c2ccc(S(N)(=O)=O)cc2)cc(OC)c1OC (stereo not drawn) [Compound 9b, 4-{3-[4-(1H-Tetrazol-1-yl)phenyl]-5-(3,4,5-trimethoxyphenyl)-4,5-dihydro-1H-pyrazol-1-yl)benzenesulphonamide] | Mucous degeneration of glandular epithelium of gastric mucosa, and lymphocytic infiltration and mild congestion in submucosa | 0.25 |  | 75% | 0.40 ± 0.11 mm | 40% | 1.00 ± 0.16 mm | 12% | 1.18 ± 0.20 mm |  | 7.37 µM | 210 nM |  | 
